# Laboratory results from patent US9045490B2, “Use of parthenolide derivatives as antileukemic and cytotoxic agents” (University of Kentucky, priority 2003, dated 2015).
# Read-outs that look alike come from different tables or passages of the source.
# Tests used:
# [1] = Oral bioavailability in mice: plasma level by LC-MS; format: in vivo; settings: mouse, 40 mg/kg oral, read-out: plasma level one hour after oral gavage
# Experimental: (§1) Preliminary in vivo work was conducted to determine the bioavailability and toxicity of this agent in mice.
# NF-κB DNA binding = test: Electrophoretic mobility gel shift assay (EMSA); format: cell-based; settings: three hours
# Experimental: Each cancer cell line in exponential growth phase was treated with solvent control or various concentrations of parthenolide derivatives dissolved in 100% ethanol for 3 hours prior to harvesting. Cells were harvested and whole cell extracts were prepared as described previously (Nakshatri et al., Mol Cell Biol, 17: 3629-3639, 1997; Sweeney et al., Clin Cancer Res, 10: 5501-5507, 2004). Extracts were incubated with a radiolabelled NFκB probe for 30 minutes at room temperature. The oligonucleotide probe binds to the NFκB DNA binding site in the promoter region of the immunoglobulin gene. Electrophoresis and autoradioragraphy were performed as described previously (Nakshatri et al., 1997) using NFκB and SP-1 probes (Promega, Madison, Wis.). The specificity of parthenolide and derivative inhibition of NFκB DNA binding was verified by the use of the SP-1 probe as a control. Identification of the NFκB subunits binding to DNA and inhibited by DMAPT were identified by gel supershift. Constitutive NF-κB DNA binding activity was determined in the lung cancer cell lines A-549, H-23, H-522, and H-460. All four non-small lung cancer cells were treated with increasing concentrations of DMAPT for three hours, and NF-κB DNA binding was measured by electrophoretic mobility shift assay (EMSA) as described. NF-κB DNA binding activity was highest in A-549 cells, followed by H-23, H-522 and H-460 cells.
# Cancer cell lines HT-1376 and UMUC-3 were treated with increasing concentrations of DMAPT for three hours. Whole cell extracts were prepared as described and DNA binding by NF-κB was analyzed by EMSA with NF-κB and OCT-1 (internal control) probes.
# The hormone refractory prostate cancer cell line, CWR22Rv1 was treated with increasing concentrations of DMAPT for three hours. Whole cell extracts were prepared as described and DNA binding by NF-κB was analyzed by EMSA with NF-κB and SP-1 (internal control) probes.
# [2] = test system: primary acute myelogenous leukemia (AML) cells; test: Assay for antileukemic activity (Annexin V/7-AAD apoptosis analysis by flow cytometry); format: cell-based; settings: 24 hours of culture
# Experimental: For apoptosis analysis, one million primary acute myelogenous leukemia (AML) cells were washed with cold PBS and resuspended in 200 microliters of Annexin binding buffer (10 mM HEPES/NaOH pH 7.4; 140 mM NaCl; 2.5 mM CaCl2). Annexin V-FITC (Pharmingen) and 0.25 mg/mL 7-AAD (7-aminoactinomycin D, Molecular Probes, CA) were added and the tubes were incubated at room temperature in the dark for 15 minutes. Cells were then diluted with 200 microliters of Annexin binding buffer and analyzed immediately by flow cytometry. Viable cells were identified as failing to label with Annexin V or 7-AAD. Cells beginning to die label with Annexin V, and as membrane integrity is lost, will also label with 7-AAD. […] Data are normalized to untreated control specimens. The data are in Table 1 for aminoparthenolide derivatives and Table 2 for the salts of some aminoparthenolides.
# [3] = test system: hormone refractory prostate cancer cell line CWR22Rv1; test: MTS-PMS cellular proliferation assay; format: cell-based; settings: at 5 μm, CWR22 MTS-PMS assay
# Experimental: A 96-well U-bottomed plate (Becton Dickinson Labware, Franklin Lakes, N.J.) at a concentration of 5,000 cells per 50 microliters […] of media was incubated in 5% CO2 at 37° C. for 24 hours. Varying compound concentrations in […] of media were added to the media 24 hours later. Colorimetric readings were obtained using the MTS/PMS system and an ELISA plate reader, after 48 hours of exposure to DMAPT. The readings obtained for each concentration tested were from an average of eight wells. Each experiment was expressed as a percentage of the solvent control and completed at least three times with consistent results. The results presented are an average of three experiments. The hormone refractory prostate cancer cell line CWR22Rv1 was treated with increasing concentrations of parthenolide and DMAPT. for three hours Both parthenolide and DMAPT reduced cellular proliferation by 50% at 5 μm in the CWR22 MTS-PMS assay. Cellular proliferation was also measured in the MTS-PMS assay using four lung cancer cell lines treated with parthenolide and derivatives PIPT ((11S,11,13-dihydro,13-(piperidin-1-yl)parthenolide), 4MEPT (11S,11,13-dihydro,13-(4-methylpiperidin-1-yl)parthenolide) and MAPT (11S,11,13-dihydro,13-dimethylaminoparthenolide). Parthenolide and its derivatives inhibited cellular proliferation in a dose dependent manner between 2 and 10 μM with 70% inhibition at 10 μM in A549, 50% in H460, 40% in H-23 and 40% in H522 (FIGS. 2-5).
# [4] = test system: normal hematopoietic stem cells; test: Human-mouse xenograft: NOD/SCID engraftment of normal donor cells treated in vitro; format: in vivo; settings: 7.5 micromolar in vitro for 12-18 hours, bone marrow analysed after 6-8 weeks (CD45)
# Experimental: (§2) To assess the effect of parthenolide on primary human stem cell populations, experiments were conducted using transplantation into immune deficient NOD/SCID mice. […] For each experiment, cryopreserved mononuclear cell specimens from normal or AML donors were thawed, and treated in vitro with 7.5 micromolar parthenolide for 12-18 hours. Following culture, 5-10 million cells/animal were injected intravenously into sublethally irradiated (300 Rad) NOD/SCID mice. After 6-8 weeks, animals were sacrificed and bone marrow was analyzed for the presence of human cells using flow cytometry as previously described (Guzman et al., Proc Natl Acad Sci USA 2002; 99: 16220-162253). Human specific antibodies for CD45 were used to assess the level of total engraftment.
# [5] = test system: breast cancer cell line 436; test: Clonogenic assay; format: cell-based; settings: 436 cells, 2 μm concentration (parthenolide: similar dosage ranges)
# [6] = Preliminary toxicity study in mice; format: in vivo; settings: oral 40 mg/kg daily, three weeks, mice gained weight and survived
# Experimental: as §1
# [7] = test system: AML cells (AML stem cell compartment); test: Human-mouse xenograft: NOD/SCID engraftment of AML cells treated in vitro; format: in vivo, human cells in NOD/SCID mice; settings: 7.5 micromolar in vitro for 12-18 hours, bone marrow analysed after 6-8 weeks (CD45)
# Experimental: as §2
smiles,measurement,setting,value
"C/C1=C\CC[C@@]2(C)O[C@@H]2[C@H]2OC(=O)[C@H](CN(C)C)[C@@H]2CC1 [DMAPT, 11S,11,13-Dihydro,13-dimethylaminoparthenolide]",concentration at 1 h,"[1]; LC-MS, average of 5 mice",~2.5 µg/mL
same,concentration at 1 h,[1]; conversion of the ng/mL value,8 µM
same,NF-κB DNA binding,"NF-κB DNA binding; CWR22Rv1, 10 μM",substantial decreases
same,NF-κB DNA binding,"NF-κB DNA binding; HT-1376 and UMUC-3 cell lines, increasing concentrations",decreased NF-κB DNA binding in a dose-dependent manner
same,NF-κB DNA binding activity,"NF-κB DNA binding; lung cancer cell lines A-549, H-23, H-522, H-460, between 2 and 10 micromolar",substantially decreased
same,Antileukemic activity,[2]; 5 μM,"5 μM, 31%"
same,Antileukemic activity,"[2]; 10 μM, normalized to untreated control","10 μM, 90%"
same,Antileukemic activity,[2]; 20 μM,"20 μM, 95%"
same,reduction of cellular proliferation,[3],50%
same,level of engraftment of treated normal cells in NOD/SCID mice,[4],no significant effects
same,inhibition of proliferation,[5],almost complete inhibition
same,toxicity on daily oral treatment,[6],no overt toxicities
same,level of engraftment of treated AML cells in NOD/SCID mice,[7],strong reduction
